Assay results reported in patent US20230159484A1, “FLUORESCENT DYES HAVING HIGH STOKES SHIFT, ON THE BASIS OF BRIDGED BENZOPYRYLIUM SALTS” (DYOMICS GmbH, priority 2020, published 2023).

Tests used:
Assay type in all cases: physicochemical
[1] = Fluorescence quantum yield
Description: Preferably, the fluorescence quantum yield of a compound according to the invention is 0.1 to 0.95, more preferably 0.5 to 0.9. Fluorescence quantum yields are preferably determined at 25° C. in dilute aqueous or ethanolic solutions with an extinction of 0.1 using a Hamamatsu Absolute Photoluminescence Quantum Yield Measurement System C-9920, wherein the dilute aqueous solutions are preferably phosphate-buffered salt solutions (PBS buffer; about 100 mM sodium chloride and 100 mM total phosphate) and have a pH of 7.5. The compounds thus complement the already commercially available dyes with high Stokes Shift or represent better fluorescent alternatives.

[2] = Fluorescence emission (emission maximum)
Description: (§1) Depending on the basic structure and substitution, the absorption maxima lie in the entire range of visible light, with a focus at 500-530 nm. The compounds show a high Stokes shift in the range of 80 nm. The absorption is measured, for example, at 25° C. in aqueous or ethanolic solutions with an extinction of 1.0 using a Specord 205 from Analytik Jena, wherein the aqueous solutions are preferably phosphate-buffered salt solutions (PBS buffer; approx. 100 mM sodium chloride and 100 mM total phosphate) and have a pH of 7.5. For example, the emission is measured at 25° C. in dilute aqueous or ethanolic solutions with an extinction of 0.1 using a FP-6600 spectrofluorometer from Jasco, wherein the dilute aqueous solutions are preferably phosphate-buffered salt solutions (PBS buffer; about 100 mM sodium chloride and 100 mM total phosphate) and have a pH of 7.5.

[3] = UV-Vis absorption (absorption maximum, extinction coefficient)
Description: as §1

[4] = Fluorescence emission (emission maximum); remark: listed apart in the source

SMILES | QY ([1]; in PBS) | QY ([1]; in ethanol) | λem ([2]; in PBS) [nm] | λem ([2]; in ethanol) [nm] | ε ([3]; UV-Vis in PBS) | λmax ([3]; UV-Vis in PBS) [nm] | ε ([3]; UV-Vis in ethanol) | λmax ([3]; UV-Vis in ethanol) [nm] | λmax ([3]; UV-Vis in buffer pH 9) [nm] | λem ([4]; in buffer pH 9) [nm] | ε ([3]; UV-Vis in buffer pH 5) [L/mol/cm] | λmax ([3]; UV-Vis in buffer pH 5) [nm] | λem ([4]; in buffer pH 5) [nm]
CCN(CCCCCC(=O)O)c1ccc2cc3c([o+]c2c1)C=C(NCCCS(=O)(=O)[O-])CC3(C)C [Compound 8, 3-[[6-[5-Carboxypentyl(ethyl)amino]-1,1-dimethyl-2H-xanthene-10-ium-3-yl]amino]propane-1-sulfonate] | 0.58 | 0.84 | 578 | 571 | 38,500 l/mol*cm | 509 | 41,600 l/mol*cm | 511 |  |  |  |  | 
CN(C1=Cc2[o+]c3cc(N(CCCCCC(=O)O)CCCS(=O)(=O)[O-])ccc3cc2C(C)(C)C1)c1ccccc1 [Compound 9, 3-[5-carboxypentyl-[8,8-dimethyl-6-(N-methylanilino)-7H-xanthene-10-ium-3-yl]amino]propane-1-sulfonate] | 0,24 | 0.47 | 600 | 601 | 39,000 l/mol*cm | 523 | 41,000 l/mol*cm | 531 |  |  |  |  | 
CN(C1=Cc2[o+]c3cc(N(CCCCCC(=O)O)CCCS(=O)(=O)[O-])ccc3cc2C(C)(C)C1)c1ccc(S(=O)(=O)[O-])cc1.[Na+] [Compound 10, 4-[[6-[5-carboxypentyl(3-sulfonatopropyl)amino]-1,1-dimethyl-2H-xanthene-10-ium-3-yl]-methyl-amino]benzenesulfonate sodium Salt] | 0.35 | 0.57 | 612 | 609 | 44,000 l/mol*cm | 527 | 48,000 l/mol*cm | 533 |  |  |  |  | 
CCN(CCCCCC(=O)O)c1ccc2cc3c([o+]c2c1)C=C(N(C)c1ccccc1)CC3(C)C.[Cl-] [Compound 11, 6-[[8,8-dimethyl-6-(N-methylanilino)-7H-xanthene-10-ium-3-yl]-ethyl-amino]hexanoic Acid Chloride Salt] | 0.27 | 0.42 | 606 | 601 | 39,000 l/mol*cm | 526 | 44,000 l/mol*cm | 531 |  |  |  |  | 
CCN(CCCCCC(=O)O)c1ccc2cc3c([o+]c2c1)C=C(N(C)c1ccc(S(=O)(=O)[O-])cc1)CC3(C)C [Compound 12, 4-[[6-[5-carboxypentyl(ethyl)amino]-1,1-dimethyl-2H-xanthene-10-ium-3-yl]-methyl-amino]benzenesulfonate] | 0.26 | 0.51 | 619 | 610 | 45,000 l/mol*cm | 532 | 50,000 l/mol*cm | 533 |  |  |  |  | 
CCN(CCCCCC(=O)O)c1ccc2cc3c([o+]c2c1)C(S(=O)(=O)[O-])=C(Nc1ccc(S(=O)(=O)[O-])cc1)CC3(C)C.[Na+] [Compound 14, 6-[5-carboxypentyl(ethyl)amino]-1,1-dimethyl-3-(4-sulfonatoanilino)-2H-xanthene-10-ium-4-sulfonate Sodium Salt] | 0.11 | 0.61 | 625 | 616 | 40,100 l/mol*cm | 545 | 45,300 l/mol*cm | 542 |  |  |  |  | 
CC1=CC(C)(C)N(CCCS(=O)(=O)[O-])c2cc3[o+]c4c(cc3cc21)C(C)(C)CC(N(C)CCCC(=O)O)=C4 [Compound 23, 3-[9-[3-carboxypropyl(methyl)amino]-2,2,4,7,7-pentamethyl-8H-chromeno[3,2-g]quinolin-11-ium-1-yl]propane-1-sulfonate] | 0.58 | 0.88 | 600 | 600 | 45,400 l/mol*cm | 527 | 55,000 l/mol*cm | 542 |  |  |  |  | 
CCN(CCCCCC(=O)O)c1ccc2c(c1)OC1=C(S(=O)(=O)[O-])C(=O)CC(C)(C)C1=C2.[Na+] [Compound 36, 6-[5-carboxypentyl(ethyl)amino]-1,1-dimethyl-3-oxo-2H-xanthene-4-sulfonate Sodium Salt] | 0.66 | 0.90 | 565 | 542 | 30,100 l/mol*cm | 482 | 25,000 l/mol*cm | 446 |  |  |  |  | 
CC1(C)CC(=O)C(S(=O)(=O)[O-])=C2Oc3cc(N(CCCCCC(=O)O)CCCS(=O)(=O)[O-])ccc3C=C21.[Na+].[Na+] [Compound 38, 6-[5-carboxypentyl(3-sulfonatopropyl)amino]-1,1-dimethyl-3-oxo-2H-xanthene-4-sulfonate di-sodium SALT] | 0.78 | 0.91 | 557 | 544 | 28,000 l/mol*cm | 479 | 31,000 l/mol*cm | 463 |  |  |  |  | 
CC1(C)CC(=O)C(S(=O)(=O)[O-])=C2Oc3cc(O)ccc3C=C21.[Na+] [Compound 39, 6-hydroxy-1,1-dimethyl-3-oxo-2H-xanthene-4-sulfonate Sodium Salt] |  |  | 485 |  |  | 409 |  |  | 462 | 536 |  |  | 
CCN(CCCCCC(=O)O)c1ccc2c(c1)OC1=C(c3ccncc3)C(=O)CC(C)(C)C1=C2 [Compound 44, 6-[[8,8-dimethyl-6-oxo-5-(4-pyridyl)-7H-xanthene-3-yl]-ethyl-amino]hexanoic Acid] |  |  | 573 |  | 13,000 l/mol*cm | 472 |  |  |  |  | 13300 | 523 | 600
CC1(C)CC(=O)C(c2ccncc2)=C2Oc3cc(N(CCCCCC(=O)O)CCCS(=O)(=O)[O-])ccc3C=C21.[Na+] [Compound 45, 3-[5-carboxypentyl-[8,8-dimethyl-6-oxo-5-(4-pyridyl)-7H-xanthene-3-yl]amino]propane-1-sulfonate Sodium Salt] |  |  | 570 |  | 15000 L/mol/cm | 470 |  |  |  |  | 15400 | 524 | 594
